Measurements: patent publication US6352834B1, “Prostate cancer assays and related methods” (University of Iowa Research Foundation, priority 1998, dated 2002)

How the values were obtained:
[1] = target: transferrin receptor (Homo sapiens, UniProt P02786); conditions: Forsbeck et al.; cited from earlier work
[2] = Cell counts and viability of LNCaP cells after culture with iron chelator; type: cell-based; conditions: human, LNCaP cells
Protocol: (§1) Comment: Table 2 is data from one of three similar experiments in which cells were cultured for 72 hours following the methods described in the proposal (i.e., cells in 6-well plates for PSA studies and cells in 96-well plates for thymidine incorporation, both at the same cell concentration). […] For viable cells, the per cell production of PSA rose 33.6% (column 8: PSA value of 1.5×10E7 molecules per cell divided by control value of 1.13×10E7). […]

[3] = test system: LNCaP cells; assay: as above; type: cell-based; conditions: 72 Hrs
Protocol: as §1

[4] = test system: LNCaP cells; assay: Thymidine (3H) incorporation, LNCaP cells in 96-well plates; type: cell-based; conditions: Homo sapiens, read-out: % Inhibition 3H
Protocol: Comment: Table 2 is data from one of three similar experiments in which cells were cultured for 72 hours following the methods described in the proposal (i.e., cells in 6-well plates for PSA studies and cells in 96-well plates for thymidine incorporation, both at the same cell concentration). […] For viable cells, the per cell production of PSA rose 33.6% (column 8: PSA value of 1.5×10E7 molecules per cell divided by control value of 1.13×10E7).

[5] = test system: LNCaP cells; assay: PSA assay on tissue culture supernatants of LNCaP cells cultured with iron chelator; type: cell-based; conditions: for Molecules PSA Per Viable Cell / Total PSA / Molecules PSA Per Cell: 72 Hrs; for Total PSA: from 3.0 ml supernatant per well; for Molecules PSA Per Cell: total cells recovered
Protocol: as §1

transferrin receptor, sequence (P02786 whole entry): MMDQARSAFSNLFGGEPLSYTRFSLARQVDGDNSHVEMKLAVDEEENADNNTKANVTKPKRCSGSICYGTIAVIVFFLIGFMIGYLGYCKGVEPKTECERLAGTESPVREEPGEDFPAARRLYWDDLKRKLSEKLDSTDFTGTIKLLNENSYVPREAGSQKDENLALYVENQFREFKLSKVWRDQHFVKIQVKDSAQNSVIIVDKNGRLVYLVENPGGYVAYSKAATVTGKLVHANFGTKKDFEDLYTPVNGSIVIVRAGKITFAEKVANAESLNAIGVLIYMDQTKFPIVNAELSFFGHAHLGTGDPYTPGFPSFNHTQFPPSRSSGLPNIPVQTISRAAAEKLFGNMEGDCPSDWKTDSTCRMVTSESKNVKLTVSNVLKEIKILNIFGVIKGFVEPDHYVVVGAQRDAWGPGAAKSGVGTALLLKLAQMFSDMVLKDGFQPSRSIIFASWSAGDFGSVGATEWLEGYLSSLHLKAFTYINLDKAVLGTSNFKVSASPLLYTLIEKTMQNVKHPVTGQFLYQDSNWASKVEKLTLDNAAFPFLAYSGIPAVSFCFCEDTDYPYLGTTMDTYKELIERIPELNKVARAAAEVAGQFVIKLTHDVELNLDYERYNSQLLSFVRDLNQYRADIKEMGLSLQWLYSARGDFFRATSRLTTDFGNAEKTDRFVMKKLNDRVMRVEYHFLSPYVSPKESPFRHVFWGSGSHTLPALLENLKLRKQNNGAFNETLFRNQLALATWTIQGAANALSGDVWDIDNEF

For `Cc1ccc(C(=O)Nc2ccc(S(=O)(=O)O)c3cc(S(=O)(=O)O)cc(S(=O)(=O)O)c23)cc1NC(=O)c1cccc(NC(=O)Nc2cccc(C(=O)Nc3cc(C(=O)Nc4ccc(S(=O)(=O)O)c5cc(S(=O)(=O)O)cc(S(=O)(=O)O)c45)ccc3C)c2)c1` [suramin], the “binding of transferrin to its receptor” value [1] is listed as “partially inhibit”.
`CC(=O)N(O)CCCCCNC(=O)CCC(=O)N(O)CCCCCNC(=O)CCC(=O)N(O)CCCCCN` [Desferal, Deferoxamine] showed a viability at 72 h, 0.1 ug/ml ([2]; Desferal 0.1 ug/ml) of 93%, a viability at 72 h, 0.25 ug/ml ([2]; Desferal 0.25 ug/ml) of 93.8% and a viability at 72 h, 0.5 ug/ml ([2]; Desferal 0.50 ug/ml) of 93.4%. The viability at 72 h, 1 ug/ml ([2]; Desferal 1.0 ug/ml) was 92.2%, the viability at 72 h, 2 ug/ml ([2]; Desferal 2.0 ug/ml) was 98.3% and the viability at 72 h, 2.5 ug/ml ([2]; Desferal 2.5 ug/ml) was 94.3%. For the same compound, the viability at 72 h, 3 ug/ml ([2]; Desferal 3.0 ug/ml) was 90.9%, the viability at 72 h, 4 ug/ml ([2]; Desferal 4.0 ug/ml) was 85.4% and the “Total Cells” value ([3]; Desferal 0.1 ug/ml) was 1.09 × 10^6. For the same compound, the “Total Viable Cells” value ([3]; Desferal 0.1 ug/ml) was 1.01 × 10^6, the “Total Cells” value ([3]; Desferal 0.25 ug/ml) was 1.07 × 10^6 and the “Total Viable Cells” value ([3]; Desferal 0.25 ug/ml) was 1.00 × 10^6. The “Total Cells” value ([3]; Desferal 0.50 ug/ml) was 1.13 × 10^6, the “Total Viable Cells” value ([3]; Desferal 0.50 ug/ml) was 1.06 × 10^6 and the “Total Cells” value ([3]; Desferal 1.0 ug/ml) was 1.14 × 10^6. The “Total Viable Cells” value ([3]; Desferal 1.0 ug/ml) was 1.05 × 10^6, the “Total Cells” value ([3]; Desferal 2.0 ug/ml) was “.900 × 10^6” and the “Total Viable Cells” value ([3]; Desferal 2.0 ug/ml) was 840 × 10^6. The “Total Cells” value ([3]; Desferal 2.5 ug/ml) was “.810 × 10^6”, the “Total Viable Cells” value ([3]; Desferal 2.5 ug/ml) was “.760 × 10^6” and the “Total Cells” value ([3]; Desferal 3.0 ug/ml) was “.744 × 10^6”. The “Total Viable Cells” value ([3]; Desferal 3.0 ug/ml) was “.680 × 10^6”, the “Total Cells” value ([3]; Desferal 4.0 ug/ml) was “.730 × 10^6” and the “Total Viable Cells” value ([3]; Desferal 4.0 ug/ml) was “.620 × 10^6”. The inhibition at 0.1 µg/mL [4] was 1.8%, the inhibition at 0.25 µg/mL [4] was 6.8% and the inhibition at 0.5 µg/mL [4] was 7.4%. The inhibition at 1 µg/mL [4] was 10.6%, the inhibition at 2 µg/mL [4] was 21.1% and the inhibition at 2.5 µg/mL [4] was 26.8%. For the same compound, the inhibition at 3 µg/mL [4] was 40.3%, the inhibition at 4 µg/mL [4] was 52.7% and the “rise in production of PSA per viable cell versus control” value ([5]; DFO 2.5 micrograms/ml, 72 hours) was 33.6%. The “Molecules PSA Per Viable Cell” value ([5]; Desferal 0.1 ug/ml) was 1.28 × 10^7, the “Total PSA” value ([5]; Desferal 0.1 ug/ml) was 710 ng and the “Molecules PSA Per Cell” value ([5]; Desferal 0.1 ug/ml) was 1.20 × 10^7. The “Molecules PSA Per Viable Cell” value ([5]; Desferal 0.25 ug/ml) was 1.30 × 10^7, the “Total PSA” value ([5]; Desferal 0.25 ug/ml) was 710 ng and the “Molecules PSA Per Cell” value ([5]; Desferal 0.25 ug/ml) was 1.22 × 10^7. For the same compound, the “Molecules PSA Per Viable Cell” value ([5]; Desferal 0.50 ug/ml) was 1.14 × 10^7, the “Total PSA” value ([5]; Desferal 0.50 ug/ml) was 650 ng and the “Molecules PSA Per Cell” value ([5]; Desferal 0.50 ug/ml) was 1.06 × 10^7. For the same compound, the “Molecules PSA Per Viable Cell” value ([5]; Desferal 1.0 ug/ml) was 1.12 × 10^7, the “Total PSA” value ([5]; Desferal 1.0 ug/ml) was 644 ng and the “Molecules PSA Per Cell” value ([5]; Desferal 1.0 ug/ml) was 1.04 × 10^7. The “Molecules PSA Per Viable Cell” value ([5]; Desferal 2.0 ug/ml) was 1.41 × 10^7, the “Total PSA” value ([5]; Desferal 2.0 ug/ml) was 642 ng and the “Molecules PSA Per Cell” value ([5]; Desferal 2.0 ug/ml) was 1.32 × 10^7. The “Molecules PSA Per Viable Cell” value ([5]; Desferal 2.5 ug/ml) was 1.51 × 10^7, the “Total PSA” value ([5]; Desferal 2.5 ug/ml) was 627 ng and the “Molecules PSA Per Cell” value ([5]; Desferal 2.5 ug/ml) was 1.42 × 10^7. The “Molecules PSA Per Viable Cell” value ([5]; Desferal 3.0 ug/ml) was 1.59 × 10^7, the “Total PSA” value ([5]; Desferal 3.0 ug/ml) was 587 ng and the “Molecules PSA Per Cell” value ([5]; Desferal 3.0 ug/ml) was 1.45 × 10^7. The “Molecules PSA Per Viable Cell” value ([5]; Desferal 4.0 ug/ml) was 1.80 × 10^7, the “Total PSA” value ([5]; Desferal 4.0 ug/ml) was 611 ng and the “Molecules PSA Per Cell” value ([5]; Desferal 4.0 ug/ml) was 1.54 × 10^7.
